SMILES strings stand for the structures.

One experiment addresses T1, human androgen receptor (Homo sapiens, UniProt P10275).
T1 construct: expressed in transfected cells; host or cells: HEK293
T1 sequence (P10275 1-920): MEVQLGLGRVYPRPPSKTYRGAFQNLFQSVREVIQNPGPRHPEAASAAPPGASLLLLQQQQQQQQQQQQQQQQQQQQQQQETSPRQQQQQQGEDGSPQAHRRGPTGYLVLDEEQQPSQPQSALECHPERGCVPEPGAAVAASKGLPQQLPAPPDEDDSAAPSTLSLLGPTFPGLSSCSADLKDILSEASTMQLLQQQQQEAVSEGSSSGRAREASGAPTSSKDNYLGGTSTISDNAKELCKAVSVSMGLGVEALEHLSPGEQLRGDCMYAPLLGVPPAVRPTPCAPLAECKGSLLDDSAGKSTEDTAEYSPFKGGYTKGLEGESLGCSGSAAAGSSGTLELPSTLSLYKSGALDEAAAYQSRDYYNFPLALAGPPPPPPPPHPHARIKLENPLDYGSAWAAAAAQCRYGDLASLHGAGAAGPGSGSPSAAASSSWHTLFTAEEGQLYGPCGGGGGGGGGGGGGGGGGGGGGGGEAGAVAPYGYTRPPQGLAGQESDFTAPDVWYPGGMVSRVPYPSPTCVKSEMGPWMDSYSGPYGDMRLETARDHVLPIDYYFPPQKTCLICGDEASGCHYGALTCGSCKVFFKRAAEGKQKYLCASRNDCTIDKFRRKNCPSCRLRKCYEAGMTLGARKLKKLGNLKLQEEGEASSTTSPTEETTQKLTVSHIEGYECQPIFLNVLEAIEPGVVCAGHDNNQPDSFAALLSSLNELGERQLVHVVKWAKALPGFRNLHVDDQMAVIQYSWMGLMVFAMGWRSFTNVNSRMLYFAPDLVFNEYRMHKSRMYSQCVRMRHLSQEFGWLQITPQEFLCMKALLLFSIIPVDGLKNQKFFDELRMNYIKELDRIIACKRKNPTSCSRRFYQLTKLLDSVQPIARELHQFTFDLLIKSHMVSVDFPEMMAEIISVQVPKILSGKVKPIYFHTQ
The experiment is described as follows: Reporter assay of an androgen receptor responsive sequence (luciferase, transiently transfected HEK293 cells). The format is cell-based. The settings on record: 24 hours incubation, relative to activity of 100 nM DHT, read-out: AR transcriptive activity (pEC50) (converted). The protocol: Reporter Assay of an Androgen Receptor Responsive Sequence
To examine the agonist activity of compounds for androgen, a reporter assay using an androgen receptor responsive sequence was conducted.
Using Lipofectamine 2000 (Invitrogen), a plasmid mixture (pGL4-ARE (200 ng/well), pcDNA3-hAR (20 ng/well), pRL-TK (Promega) (150 ng/well)) was transiently transfected into HEK293 cells. The contents of the plasmid (mixture) are as follows:
pGL4-ARE is a reporter plasmid containing firefly luciferase sequence under the control of androgen receptor responsive sequence; pcDNA3-hAR is a plasmid containing full-length sequence of human androgen receptor under the constant control of CMV promoter; pRL-TK is a plasmid containing Renilla Luciferase sequence under the control of herpes simplex virus thymidine kinase and used as an internal standard for evaluations of transfection efficiency and compound toxicity.
After the incubation of Lipofectamine 2000 and the plasmid mixture in Opti-MEM for 20 minutes, the mixture was mixed with a cell suspension prepared with Opti-MEM in the similar way, and the cell suspension was plated to a 96-well plate at 20000 cells/well. The transfection was conducted by incubating the plates under the condition of 5% CO2 at 37° C. for 3 hours. Three hours after the transfection, the culture medium was removed and a compound solution prepared by DMEM supplemented with 5% FBS and treated with charcoal was added, and the mixture was incubated under the condition of 5% CO2 at 37° C. for 24 hours. After the incubation with the compound, luciferase activities were measured with a luminometer using Dual-Glo™ Luciferase Assay System (Promega). The measurement of the luciferase activities was performed in accordance with the protocol recommended by Promega. The activity of the compound was determined by comparing to the activity of 100 nM of DHT, and quantified the logarithm value (pEC50) of reciprocal value of the effective concentration of the compound which is equal to 50% of the activity value by applying a 4 parameter goodness-of-fit calculation.
Background: Reporter assays use an easily measured gene product as a stand-in for the process of interest.

The target in experiment [1] is T2, androgen receptor (AR-LBD) (Rattus norvegicus, UniProt P15207).
T2 construct: 5 μL of 2×AR-LBD/Fluoromone AL Red Complex contained in the kit; purchased Invitrogen
T2 sequence (P15207 651-882 limits assumed): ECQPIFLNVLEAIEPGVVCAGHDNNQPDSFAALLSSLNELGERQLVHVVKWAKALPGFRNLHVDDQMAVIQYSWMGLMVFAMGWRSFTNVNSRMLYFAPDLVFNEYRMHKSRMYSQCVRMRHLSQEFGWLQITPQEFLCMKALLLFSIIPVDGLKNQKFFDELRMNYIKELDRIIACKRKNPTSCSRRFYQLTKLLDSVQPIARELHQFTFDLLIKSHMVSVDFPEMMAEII
The experiment is described as follows: Evaluation of androgen receptor affinity (PolarScreen Androgen Receptor Competitor Assay Kit, Red; fluorescence polarization). The note with it: 22° C. for 5 hours, relative to binding rate of 1 μM DHT, read-out: AR affinity (pEC50) (converted). The gist of the method:
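Fluorescence polarization competition assay: compound was incubated in duplicate with the kit's AR-LBD/Fluoromone AL Red complex for 5 h at 22 °C. Binding was expressed relative to 1 μM DHT, and pEC50 was derived by 4-parameter fit.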
For orientation: In fluorescence polarisation assays a small probe gives low polarisation when free and higher when bound to something large.

On to `Cc1sc(N(Cc2ccc(Cl)cc2)[C@H]2C[C@@H]2c2ccccc2)nc1C(=O)NS(C)(=O)=O` (racemic) [Compound 150, 2-[(4-chlorophenyl)methyl-(trans-2-phenylcyclopropyl)amino]-5-methyl-N-methylsulfonyl-thiazole-4-carboxamide], for which the EC50 is 631 nM on human androgen receptor and 79.4 nM in experiment [1].
The matching figures for `Cc1oc(N(CCc2ccc(OC(F)(F)F)cc2)Cc2ccc(Cl)cn2)nc1C(=O)NS(C)(=O)=O` [Compound 561, 2-[(5-chloro-2-pyridyl)methyl-[2-[4-(trifluoromethoxy)phenyl]ethyl]amino]-5-methyl-N-methylsulfonyl-oxazole-4-carboxamide]: 3160 nM and 39.8 nM.
For `COC[C@H](C)Oc1ccc(CN(c2ccc(C#N)cc2)c2nc(C(=O)NS(C)(=O)=O)c(C)s2)cc1` [Compound 584, 2-[4-cyano-N-[[4-[(1S)-2-methoxy-1-methyl-ethoxy]phenyl]methyl]anilino]-5-methyl-N-methylsulfonyl-thiazole-4-carboxamide] the same measures were 3160 nM and 79.4 nM.
Take `Cc1oc(N(CCc2ccc(C#N)cc2)Cc2ccc(F)cc2Cl)nc1C(=O)NS(C)(=O)=O` [Compound 554, 2-[(2-chloro-4-fluoro-phenyl)methyl-[2-(4-cyanophenyl)ethyl]amino]-5-methyl-N-methylsulfonyl-oxazole-4-carboxamide]: the EC50 on human androgen receptor was 794 nM; in experiment [1], 39.8 nM.
The matching figures for `CS(=O)(=O)NC(=O)c1nc(N(Cc2cccc(OC(F)(F)F)c2)c2ccc(C#N)cc2)sc1Cl` [Example 273, 5-chloro-2-[4-cyano-N-[[3-(trifluoromethoxy)phenyl]methyl]anilino]-N-methylsulfonyl-thiazole-4-carboxamide]: 63.1 nM and 31.6 nM.
The matching figures for `CCS(=O)(=O)NC(=O)c1nc(N(CCc2ccc(Cl)cc2)Cc2ccc(OC(F)(F)F)cc2)sc1C` [Compound 701, 2-[2-(4-chlorophenyl)ethyl-[[4-(trifluoromethoxy)phenyl]methyl]amino]-N-ethylsulfonyl-5-methyl-thiazole-4-carboxamide]: 1260 nM and 63.1 nM.
As to `Cc1sc(N(Cc2ccc(F)cn2)c2ccc(C#N)cc2)nc1C(=O)NS(C)(=O)=O` [Compound 517, 2-[4-cyano-N-[(5-fluoro-2-pyridyl)methyl]anilino]-5-methyl-N-methylsulfonyl-thiazole-4-carboxamide], the EC50 on human androgen receptor was 631 nM; in experiment [1], 316 nM.
For `COCCCS(=O)(=O)NC(=O)c1nc(N(Cc2ccc(OC(F)F)cc2F)c2ccc(C#N)cc2)sc1C` [Compound 523, 2-[4-cyano-N-[[4-(difluoromethoxy)-2-fluoro-phenyl]methyl]anilino]-N-(3-methoxypropylsulfonyl)-5-methyl-thiazole-4-carboxamide] the same measures were 398 nM and 31.6 nM.
In the case of `Cc1sc(N(Cc2ccc(OC(F)F)c(Cl)c2)c2ccc(C#N)cc2)nc1C(=O)NS(C)(=O)=O` [Compound 536, 2-[N-[[3-chloro-4-(difluoromethoxy)phenyl]methyl]-4-cyano-anilino]-5-methyl-N-methylsulfonyl-thiazole-4-carboxamide], the EC50 at human androgen receptor is 39.8 nM; in experiment [1], 20 nM.
For `Cc1sc(N(Cc2ccccc2)c2ccc(C#N)cc2)nc1C(=O)NS(=O)(=O)CS(C)(=O)=O` [Compound 382, 2-(N-benzyl-4-cyano-anilino)-5-methyl-N-(methylsulfonylmethylsulfonyl)thiazole-4-carboxamide], the EC50 on human androgen receptor was over 10000 nM; in experiment [1], 79.4 nM.
For `Cc1sc(N(CCc2ccc(Cl)cc2)Cc2ccc(C#N)cc2)nc1C(=O)NS(C)(=O)=O` [Compound 503, 2-[2-(4-chlorophenyl)ethyl-[(4-cyanophenyl)methyl]amino]-5-methyl-N-methylsulfonyl-thiazole-4-carboxamide] the same measures were 1260 nM and 31.6 nM.
The matching figures for `Cc1sc(N(Cc2c(F)cccc2F)c2ccc(C#N)cc2)nc1C(=O)NS(C)(=O)=O` [Compound 124, 2-[4-cyano-N-[(2,6-difluorophenyl)methyl]anilino]-5-methyl-N-methylsulfonyl-thiazole-4-carboxamide]: 631 nM and 63.1 nM.
Regarding `Cc1sc(N(CCC2CCCCC2)Cc2ccc(Cl)cc2)nc1C(=O)NS(=O)(=O)C1CC1` [Compound 730, 2-[(4-chlorophenyl)methyl-(2-cyclohexylethyl)amino]-N-cyclopropylsulfonyl-5-methyl-thiazole-4-carboxamide], the EC50 at human androgen receptor is over 10000 nM.
In the case of `Cc1ccn(CCN(Cc2ccccc2)c2nc(C(=O)NS(C)(=O)=O)c(C)s2)n1` [Compound 681, 2-[benzyl-[2-(3-methylpyrazol-1-yl)ethyl]amino]-5-methyl-N-methylsulfonyl-thiazole-4-carboxamide], in experiment [1], the EC50 was over 2000 nM.
The same measure, in the same setting: under `Cc1sc(N(Cc2ccccc2)c2cccc(C#N)c2)nc1C(=O)NS(C)(=O)=O` [Example 225, 2-(N-benzyl-3-cyano-anilino)-5-methyl-N-methylsulfonyl-thiazole-4-carboxamide] stands over 2000 nM; under `Cc1sc(N(CCC2CCOCC2)Cc2ccccc2)nc1C(=O)NS(C)(=O)=O` [Example 300, 2-[benzyl(2-tetrahydropyran-4-ylethyl)amino]-5-methyl-N-methylsulfonyl-thiazole-4-carboxamide], 398 nM; under `Cc1sc(N(CCC2CCNCC2)Cc2ccccc2)nc1C(=O)NS(C)(=O)=O` [Compound 705, 2-[benzyl-[2-(4-piperidyl)ethyl]amino]-5-methyl-N-methylsulfonyl-thiazole-4-carboxamide], over 2000 nM.
Still for that read-out and setting: the same measure for `Cc1sc(N(CC(=O)C(C)(C)C)c2ccc(C#N)cc2)nc1C(=O)NS(C)(=O)=O` [Compound 63, 2-(4-cyano-N-(3,3-dimethyl-2-oxo-butyl)anilino)-5-methyl-N-methylsulfonyl-thiazole-4-carboxamide]: over 2000 nM.
Still for that read-out and setting: the same measure for `Cc1sc(N(Cc2ccccc2)c2ccc(C#N)cc2)nc1C(=O)NS(=O)(=O)CCN1CCCCC1` [Compound 430, 2-(N-benzyl-4-cyano-anilino)-5-methyl-N-[2-(1-piperidyl)ethylsulfonyl]thiazole-4-carboxamide]: over 2000 nM; for `Cc1sc(N(Cc2ccccc2)c2ccc(C#N)cc2Br)nc1C(=O)NS(C)(=O)=O` [Compound 142, 2-(N-benzyl-2-bromo-4-cyano-anilino)-5-methyl-N-methylsulfonyl-thiazole-4-carboxamide]: 631 nM.

Values taken from US10689354B2, “Aminoazole derivative” (Teijin Pharma Limited, priority 2015, dated 2020).
